# Measurements from patent publication US20240226066A1, “CARDIOPROTECTION BY AUTOPHAGY INDUCTION AND METABOLIC REPROGRAMMING” (UNIVERSITE PARIS-SACLAY, priority 2021, published 2024).
# Legend:
# H9C2 cells [1] = experiment: Mitochondrial morphology and abundance by transmission electron microscopy; assay type: cell-based, rat; conditions: compared to DMSO; for mitochondrial number, size and morphology by transmission electron microscopy: 1 μM
# Description: The cells were treated with a vehicle (0.01% DMSO), 1 μM digoxin, 1 μM SG6163F, 10 μM SG6163F, fixed with glutaraldehyde and analyzed by transmission electron microscopy. The cells treated with digoxin and with 10 μM SG6163F have many shorter round mitochondria compared with the control which has long thin mitochondria (FIG. 7B, FIG. 7D versus FIG. 7A).
# Transmission electron microscopy. For ultrastructural analysis, the cells were fixed in 1.6% glutaraldehyde in a 0.1 M phosphate buffer, rinsed in a 0.1 M cacodylate buffer, and post-fixed for 1 h in 1% osmium tetroxide and 1% potassium ferrocyanide in a 0.1 M cacodylate buffer to improve the coloration of the membranes. The cells were rinsed in distilled water, dehydrated in alcohols and finally embedded in epoxy resin. Contrasting ultrafine sections (70 nm) were analyzed under a JEOL 1400 transmission electron microscope with a Morada Olympus CCD camera.
# Due to the importance of mitochondria and reactive oxygen species (ROS) levels in the fate of cardiomyocyte cells, the hypothesis that the compounds could impact the mitochondrial network was explored. Following treatment of the RNVCs with the compounds tested, the mitochondrial network was stained with 200 nM of Mitotracker and the cell volume with 4 μM of calcein-AM. Thus, the mitochondrial network and the individual mitochondria were then analyzed using the IMARIS software.
# H9C2 cells [2] = experiment: Seahorse XF Cell Mito stress test (OCR); assay type: cell-based, rat
# Description: FIG. 8B: the H9c2 cells were treated with the compounds for 6 h, then a mitochondrial respiration stress test was carried out.
# The XFe96 extracellular flow analyzer (Seahorse Biosciences, North Billerica, MA, USA) was used to measure the bioenergetic function of H9C2 cardiomyocytes. The H9C2 cells were seeded at 20 000 cells per well in XF96 cell culture microplates; all the pretreatments were carried out with serum-free cell culture medium. The Agilent Seahorse XF glycolysis stress test was performed to measure glycolytic function in the H9C2 cells; the extracellular acidification rate (ECAR) was measured sequentially by 3 injections, 10 mM glucose, 2 μM oligomycin and 50 mM 2-deoxy-D-glucose (2-DG). The Agilent Seahorse XF Cell Mito stress test measured key parameters of mitochondrial function by directly measuring the oxygen consumption rate (OCR) of the H9C2 cells. The test used the built-in injection ports on XF sensor cartridges to add respiration modulators into the cell well during the test in order to reveal key parameters of mitochondrial function. Oligomycin at 2 μM was injected first after the baseline measurements. Then 1 μM of […] (FCCP) was injected. The third injection corresponds to 0.5 μM of antimycin A, to stop mitochondrial respiration. The oxidation of the exogenous fatty acids was measured simultaneously using the XF palmitate-BSA FAO substrate kit with the mitochondrial stress test on XF cells. The substrate-limited medium is DMEM with 0.5 mM glucose, 1 mM GlutaMAX, 0.5 mM carnitine and 1% fetal calf serum. Carnitine was added freshly on the day of the change of medium. The FAO test medium contains 111 mM NaCl, 4.7 mM KCl, 1.25 mM CaCl2, 2 mM MgSO4, 1.2 mM NaH2PO4, supplemented with 2.5 mM glucose, 0.5 mM carnitine and 5 mM HEPES on the day of the test, adjusted to pH 7.4 at 37° C. The H9C2 cells were seeded at 20 000 cells per well in XF96 cell culture microplates. […]
# Next, the energy metabolism was analyzed in real time using the Seahorse technology in H9C2 cells.
smiles,measurement,setting,value
O=C1NC(c2ccccc2)=N/C1=C\c1cc2ccccc2c2ccccc12 [SG6163F],"mitochondrial number, size and morphology by transmission electron microscopy",H9C2 cells [1],did not affect the morphology of the mitochondria
same,mitochondrial number and size by transmission electron microscopy,H9C2 cells [1]; 10 μM,increase in the number of mitochondria and a decrease in their size
same,OXPHOS,H9C2 cells [2]; independently of the substrates,boost OXPHOS
C[C@]12CC[C@H](O)C[C@H]1CC[C@@H]1[C@@H]2CC[C@]2(C)[C@@H](C3=CC(=O)OC3)CC[C@]12O [digitoxigenin],ATP production by oxidative phosphorylation (OXPHOS),"H9C2 cells [2]; glucose and pyruvate as substrates, 6 h",improved ATP production by oxidative phosphorylation
C[C@H]1O[C@@H](O[C@H]2[C@@H](O)C[C@H](O[C@H]3[C@@H](O)CC(O[C@H]4CC[C@@]5(C)[C@H](CC[C@@H]6[C@@H]5C[C@@H](O)[C@]5(C)[C@@H](C7=CC(=O)OC7)CC[C@]65O)C4)O[C@@H]3C)O[C@@H]2C)C[C@H](O)[C@@H]1O (some centres unmarked) [digoxin],"mitochondrial number, size and morphology by transmission electron microscopy",H9C2 cells [1],increase in the number of mitochondria and a decrease in their size
